In US20070178439A1, “Control of es cell self renewal and lineage specification, and medium therefor” (priority 2003, published 2007):
“Also recorded” adds a separate entry of the source.

Assays:
Assay type in all cases: cell-based, mouse
ES cells = assay: ES cell self-renewal versus differentiation in serum-free N2B27 adherent culture with passaging; details: for ES cell self-renewal / differentiation: N2B27 serum-free, factor(s) as labelled; for ES cell self-renewal with TGF-β superfamily ligand or other factor in place of BMP4: N2B27, in the presence of LIF
Protocol: (§1) ES cells were maintained without feeder cells. For serum-free culture, ES cells were plated onto gelatin-coated plates in N2B27 medium (Ying and Smith, 2003) supplemented with 10 ng/ml LIF (Sigma) and 10 ng/ml BMP4 or 200 ng/ml GDF6 (R&D Systems). Cells were passaged every 2-4 days using either enzyme-free Cell Dissociation Buffer (Invitrogen) or 0.025% trypsin/1% chicken serum. Dissociated cells were harvested in N2B27 and pelleted. Supernatant was aspirated and the cell pellet resuspended in N2B27 and replated directly. For single cell cloning, a finely drawn Pasteur pipette pre-loaded with N2B27 was used to pick individual cells into 10 μl drops. Drops were then singly transferred to 96-well plates pre-loaded with 150 μl N2B27 per well with LIF or LIF plus BMP4. After 8 days, ES cell colonies were identified and passaged. To produce chimaeras, ES cells were injected into C57Bl/6 blastocysts. Germline transmission was tested by mating male chimaeras with C57Bl/6 females.

Id1 Transfectants = assay: Propagation of single ES cells in serum-free medium (single cell cloning), Id1 transfectants
Excerpt: Under these conditions the transfectants were not overtly different from parental ES cells or empty vector transfectants. In contrast, in serum-free N2B27, Id transfectants whilst remaining LIF-dependent, were liberated from requirement for BMP. These cells proliferated in LIF alone as rapidly and with as little differentiation as parental ES cells in LIF plus BMP. The cultures could be passaged multiple times with no change in undifferentiated morphology or factor dependence. The ES cell phenotype was confirmed by expression of Oct4 and Nanog mRNAs (FIG. 4D). As a rigorous test of the capacity of Id expression to substitute for serum or BMP/GDF, we plated single cells in N2B27.
as §1

Id genes = assay: Gene induction in Oct4-selected ES cells (LightCycler RT-PCR, Northern hybridisation); details: overnight in N2B27, then stimulated 45 minutes
Protocol: (§2) Oct4GiP ES cells (Ying et al., 2002) were cultured in the presence of puromycin for 4-6 days to eliminate differentiated cells. Purified ES cells were cultured in complete medium plus LIF for 24 hours then washed once with PBS and transferred to N2B27 medium overnight prior to stimulation for 45 min. with 20 ng/ml LIF, 50 ng/ml BMP4, LIF plus BMP4, 10 ng/ml TGF-β1 (all R&D Systems) or 15% FCS. Quantitative RT-PCR was carried out using the LightCycler Instrument (Roche). Data were normalised relative to Oct4 amplification. Primer pairs and reaction conditions are available upon request. Northern hybridizations were carried out on 5 μg aliquots of total RNA.

Smad1 = assay: Immunoblot of active serine phosphorylated Smad1 in undifferentiated ES cells; details: 15 min or 1 hour stimulation
Protocol: (§3) Pre-selected Oct4GiP ES cells were transferred to N2B27 medium overnight prior to stimulation with LIF (20 ng/ml), BMP4 (50 ng/ml) or LIF plus BMP4 for 15 min or 1 hour. Phosphorylated stat3, smad1, erk1/2 and p38 were detected by immunoblotting (Cell Signaling Technology). Cell lysis and immunoprecipitation (Nakashima et al., 1997) employed anti-FLAG (Sigma) or anti-Stat3 (Transduction Labs). Immunostaining was performed as described (Ying et al., 2003)

[1] = test system: p38 and erk mitogen-activated protein kinases; assay: Immunoblot of p38 and erk activation in undifferentiated ES cells
Protocol: as §3

STAT3 = assay: Immunoblot of STAT3 tyrosine 705 phosphorylation in ES cells
Protocol: as §3

[2] = test system: blastocysts / inner cell masses; assay: Derivation of ES cells from blastocysts in serum free medium; details: ICM dissociated after 4 days of blastocyst culture in LIF only, BMP4 added on replating
Excerpt: We investigated whether the response to BMP may be an adaptation of established ES cells to culture or is manifest during the initial stages of ES cell derivation. We plated blastocysts in N2B27 supplemented with BMP plus LIF. After several days expanded inner cell masses (ICMs) were dissociated and replated in the same culture conditions. […] Therefore we subsequently dissociated the ICM after only 4 days of blastocyst culture in LIF only and added BMP4 on replating. […] These could be passaged and expanded as morphologically undifferentiated ES cells. One line (SF1) was characterised further. Upon withdrawal of LIF and BMP, SF1 ES cells underwent neural differentiation in vitro. Moreover, SF1 cells produced extensively chimaeric mice (FIG. 2F). Twelve chimaeras were all male, indicative of sex conversion by highly contributing XY ES cells (Bradley et al., 1984).
Strain 129 mice were ovariectomised on the third day of pregnancy and embryos in diapause flushed 4 days later (Nichols et al., 1990). Intact blastocysts were plated on gelatin-coated plastic in N2B27 supplemented with LIF (10 ng/ml). After 3-6 days the central mass of each explant was picked, rinsed in PBS and placed in a drop of trypsin for a few minutes. […]

[3] = test system: tis11, c-fos, junB, socs3; assay: Induction of known LIF target genes in Oct-selected ES cells (real time RT-PCR); details: 45 min stimulation
Protocol: as §2

[4] = Id1 transfectants, single cells, N2B27 serum-free

## C[S+]([O-])c1ccc(-c2nc(-c3ccncc3)c(-c3ccc(F)cc3)[nH]2)cc1 (stereo not drawn) [SB203580, reference compound]
ES cells; 30 μM, N2B27
  Effect of p38 inhibitor on balance of self-renewal and neural differentiation in LIF only: does not suppress; also recorded: did not alter the balance between self-renewal and neural differentiation
  Effect of p38 inhibitor on self-renewal in LIF plus BMP: does not suppress; also recorded: no noticeable effect
ES cells; N2B27
  Overall cell viability in LIF only: appeared to enhance overall cell viability

## LIF: gp130 receptor binding cytokine, Leukaemia Inhibitory Factor
Id1 Transfectants; [4]
  Number of colonies expanded: 16
  Number of colonies formed at day 8: 19
Id1 Transfectants; Id transfectants, N2B27
  Frequency of undifferentiated passageable colony formation from single cells: 10%
ES cells
  ES cell self-renewal / differentiation: reduces but does not eliminate neural differentiation
ES cells; successive passaging in N2B27
  Passages after which number of undifferentiated ES cells began to decline: 2-3 passages

## TGF-β1: TGF-β superfamily member, not a BMP receptor ligand
ES cells
  ES cell self-renewal with TGF-β superfamily ligand or other factor in place of BMP4: no discernible effect on ES cells
Id genes
  Id gene (Id1, Id2, Id3) mRNA induction: Neither activin (data not shown) nor TGF-β1 induce Id gene expression

## activin
ES cells
  ES cell self-renewal with TGF-β superfamily ligand or other factor in place of BMP4: increased viability and/or proliferation but did not suppress differentiation
Id genes
  Id gene (Id1, Id2, Id3) mRNA induction: Neither activin (data not shown) nor TGF-β1 induce Id gene expression

## fibronectin
ES cells; N2B27, in combination with LIF
  Passages over which undifferentiated Oct4-GiP cells could be expanded: at least 10 passages
ES cells
  ES cell self-renewal with TGF-β superfamily ligand or other factor in place of BMP4: more differentiation and slower population expansion than in BMP
Id genes
  Id gene (Id1, Id2, Id3) mRNA induction: induced by foetal calf serum and by fibronectin, although to a lesser extent than by BMP

B1: GDF-6: BMP relative growth and differentiation factor-6 (protein, UniProt Q6KF10 336-455, looked up)
Growth/differentiation factor …: TAFASRHGKRHGKKSRLRCSKKPLHVNFKELGWDDWIIAPLEYEAYHCEGVCDFPLRSHLEPTNHAIIQTLMNSMDPGSTPPSCCVPTKLTPISILYIDAGNNVVYKQYEDMVVESCGCR
ES cells
  ES cell self-renewal with TGF-β superfamily ligand or other factor in place of BMP4: similarly supported ES cell self-renewal
Id genes
  Id gene (Id1, Id2, Id3) mRNA induction: strongly induced

B2: BMP4: BMP receptor ligand, agonist of the TGF-β superfamily signalling pathway (protein, UniProt P12644 293-408, looked up)
Bone morphogenetic protein 4: SPKHHSQRARKKNKNCRRHSLYVDFSDVGWNDWIVAPPGYQAFYCHGDCPFPLADHLNSTNHAIVQTLVNSVNSSIPKACCVPTELSAISMLYLDEYDKVVLKNYQEMVVEGCGCR
ES cells
  ES cell self-renewal / differentiation: differentiation into sheets of flattened epithelial-like cells
Id genes
  Id gene (Id1, Id2, Id3) mRNA induction: strongly induced
Smad1
  Phosphorylation of Smad1: Increased phosphorylation of Smad1
[1]; LIF plus BMP
  Erk activation in response to LIF in presence of BMP: not appreciably inhibited
[1]; undifferentiated ES cells, 15 min or 1 hour stimulation
  Activation of p38 and erk: enhances the basal activation of p38 and, by one hour, of erk
STAT3; BMP alone
  STAT3 activation (phosphorylation of tyrosine 705): does not activate STAT3
STAT3; LIF plus BMP
  STAT3 activation by LIF in presence of BMP: Nor does it increase STAT3 activation by LIF
[2]
  Formation of primary ES cell colonies: primary ES cell colonies did form
[3]
  Induction of junB and socs3 mRNA: more highly induced by LIF in the presence of BMP
  Induction of tis11 and c-fos mRNA: showed no response to BMP
